US4103019A, “Triterpene derivatives” (Laboratorios Landerlan, S. A., priority 1975, dated 1978)

Tests used:
ulcers (reserpine) = assay: Anti-ulcer action, reserpine-induced ulcers; type: in vivo, rats; conditions: intra-peritoneal
Text: Dose mg./Kg. Inhibition %
Reserpine 5 Intra-peritoneal

[1] = system: ulcers (Psychosomatic Frustration, M. Bonfils); assay: Anti-ulcer action, psychosomatic frustration ulcers (M. Bonfils); type: in vivo, rats; conditions: oral
[2] = system: ulcers (Pyloric Ligature, M. Shay); assay: Anti-ulcer action, pyloric ligature ulcers (M. Shay); type: in vivo, rats
[3] = system: different artificially invoked conditions; assay: Neurotropic, musculotropic, antihistaminic, anti-ulcer and healing activity in different artificially invoked conditions; type: in vivo; conditions: different artificially invoked conditions in mice, rats, Guinea pigs, rabbits and dogs
ulcers (phenylbutazone) = assay: Anti-ulcer action, phenylbutazone-induced ulcers; type: in vivo, rats; conditions: oral

Row | Compound | Inhibition % (ulcers (reserpine); 5 mg./Kg.) | Inhibition % (ulcers (reserpine); 10 mg./Kg.) | Inhibition % (ulcers (reserpine); 25 mg./Kg.) | Inhibition % ([1]; 5 mg./Kg.) | Inhibition % ([1]; 10 mg./Kg.) | Inhibition % ([1]; 20 mg./Kg.) | Inhibition % ([2]; 2.5 mg./Kg., intra-peritoneal) | Inhibition % ([2]; 5 mg./Kg., intra-dermal) | Inhibition % ([2]; 10 mg./Kg., intra-peritoneal) | Inhibition % ([2]; 15 mg./Kg., intra-peritoneal) | Inhibition % ([2]; 25 mg./Kg., intra-peritoneal) | activity as neurotropic, musculotropic antihistaminic, anti-ulcer and healing agents [3] | Inhibition % ([1]; 50 mg./Kg.) | Inhibition % ([2]; 2.5 mg./Kg., intra-dermal) | Inhibition % ([2]; 5 mg./Kg., intra-peritoneal) | Inhibition % ([2]; 10 mg./Kg., intra-dermal) | Inhibition % (ulcers (phenylbutazone); 5 mg./Kg.) | Inhibition % (ulcers (phenylbutazone); 10 mg./Kg.)
1 | CC1(C(=O)OCC2CCC[N+]2(C)C)CCC2(C)CCC3(C)C(=CC(=O)C4C5(C)CCC(O)C(C)(C)C5CCC43C)C2C1 (centres unmarked) [Example 3, 2-(glycyrrhetinoylmethyl) N-methyl pyrrolidine methylsulfate] | 42% | 25% | 25% | 42% | 33% | 18% | 52% | 36% | 69% | 48% | 69% | outstanding activity | – | – | – | – | – | –
2 | CC1(C(=O)OCC2CCC[N+]2(C)C)CCC2(C)CCC3(C)C(=CC(=O)C4C5(C)CCC(O)C(C)(C)C5CCC43C)C2C1 (centres unmarked) [Example 4, 2(glycyrrhetinoyl methyl) N-methylpyrrolidine methylbromide] | 8% | 47% | 13% | 52% | 43% | – | – | 29% | 55% | – | – | outstanding activity | 25% | 27% | 65% | 24% | 22% | 23%
